Laboratory results as given in US8765779B2, “Tricyclic derivatives and their pharmaceutical use and compositions” (Cephalon, Inc., priority 2009, dated 2014).

Target: T1, human 5-HT6 receptor (Homo sapiens, UniProt P50406)
T1 construct: host or cells: CHO-K1 cells, stably transfected; membranes prepared in house
Test: Human 5-HT6 Receptor Binding Assay ([3H]LSD displacement, scintillation beads)
Details: membranes of CHO-K1 cells with recombinant human 5-HT6, 4 nM [3H]LSD; Table 1, class symbols; read-out: h5-HT6 (Ki)

T1 sequence (P50406 whole entry): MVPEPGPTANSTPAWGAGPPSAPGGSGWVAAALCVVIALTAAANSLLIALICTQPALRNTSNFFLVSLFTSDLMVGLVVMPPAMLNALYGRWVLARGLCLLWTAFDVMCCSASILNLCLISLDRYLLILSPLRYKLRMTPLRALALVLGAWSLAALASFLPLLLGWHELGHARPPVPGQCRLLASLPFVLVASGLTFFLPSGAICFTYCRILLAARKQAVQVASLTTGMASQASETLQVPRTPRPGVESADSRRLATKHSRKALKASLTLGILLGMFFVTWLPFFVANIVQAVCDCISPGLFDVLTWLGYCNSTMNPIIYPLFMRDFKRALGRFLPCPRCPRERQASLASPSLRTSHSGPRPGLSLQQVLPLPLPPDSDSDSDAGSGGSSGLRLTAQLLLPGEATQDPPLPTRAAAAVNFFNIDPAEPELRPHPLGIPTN

Row | Structure (SMILES) | Ki [µM]
1 | COc1cccc(S(=O)(=O)c2ccc3c(c2)OC2CNCCC32)c1F (stereo not shown) [Example 404] | < 0.5
2 | COc1ccc(OC)c(S(=O)(=O)Oc2ccc3c(c2)OC2CNCCC32)c1 (stereo not shown) [Example 670] | < 0.5
3 | CC(C)c1ccc(S(=O)(=O)c2ccc3c(c2)OC2CNCCC32)cc1 (stereo not shown) [Example 125] | < 0.5
4 | CC12CCNCC1Oc1ccc(OS(=O)(=O)c3ccc(-c4ccon4)s3)cc12 (stereo not shown) [Example 781] | > 1
5 | O=S(=O)(c1ccccc1)c1ccc2c3c(oc2c1)[C@]1(CCOC1)NCC3 (single isomer, unassigned) [Example 110] | < 0.5
6 | O=S(=O)(c1ccc2c3c(oc2c1)CNCC3)C1CCCCC1 [Example 233] | > 1
7 | [O-][S+](c1ccc2c(c1)OC1CNCCC21)c1cccc(F)c1F (stereo not shown) [Example 384] | < 0.5
8 | O=S(=O)(Oc1ccc2c(c1)OC1CNCCC21)c1c(Cl)nc2sccn12 (stereo not shown) [Example 792] | < 0.5
9 | CC1NCCc2c1oc1cc(S(=O)(=O)c3cccc(C(F)(F)F)c3)ccc21 (stereo not shown) [Example 237] | < 0.5
10 | CC1OCCC12NCCc1c2oc2cc(S(=O)(=O)c3cccc(F)c3)ccc12 (single isomer, unassigned) [Example 61, 7-[(3-Fluorophenyl)sulfonyl]-2′-methyl-3,4,4′,5′-tetrahydro-2H-spiro[1-benzofuro[2,3-c]pyridine-1,3′-furan]] | < 0.5
11 | O=S(=O)(c1ccc2c(c1)OC1CNCCC21)c1cccc2c1CCO2 (stereo not shown) [Example 405] | 0.5 to 1
12 | O=S(=O)(c1cccc(Cl)c1)c1ccc2c3c(oc2c1)C1(CCOC1)NCC3 (stereo not shown) [Example 303] | < 0.5
13 | [O-][S+](c1ccc2oc3c(c2c1)CCNC3)c1cc(F)cc(F)c1F (stereo not shown) [Example 443] | > 1
14 | CC(C)(C)c1ccc(S(=O)(=O)Oc2ccc3c(c2)C2CCNCC2O3)cc1 (stereo not shown) [Example 727] | 0.5 to 1
15 | Cc1ccc(F)cc1S(=O)(=O)c1ccc2oc3c(c2c1)CCNC3 [Example 254] | < 0.5
16 | CC12CCNCC1Oc1ccc(OS(=O)(=O)Cc3ccccc3)cc12 (stereo not shown) [Example 758, 4a-methyl-1,2,3,4,4a,9a-hexahydro[1]benzofuro[2,3-c]pyridin-6-yl phenylmethanesulfonate] | < 0.5
17 | Cc1c(S(=O)(=O)Oc2ccc3c(c2)OC2CNCCC32)sc2ccc(Cl)cc12 (stereo not shown) [Example 687] | < 0.5
18 | CC1NCCc2c1oc1cc(S(=O)(=O)c3ccccc3)ccc21 (stereo not shown) [Example 235] | < 0.5
19 | O=S(=O)(c1ccc(Cl)c(Cl)c1)c1ccc2c3c(oc2c1)CNCC3 [Example 197, 7-[(3,4-dichlorophenyl)sulfonyl]-1,2,3,4-tetrahydro[1]benzofuro[2,3-c]pyridine] | < 0.5
20 | CN1CCC2c3ccc(S(=O)(=O)c4ccccc4)cc3OC2C1 (stereo not shown) [Example 607] | < 0.5
21 | COc1c(F)cc(F)cc1S(=O)(=O)c1ccc2c3c(oc2c1)C(C)(C)NCC3 [Example 470] | < 0.5
22 | O=S(=O)(c1cccc(F)c1)c1ccc2c3c(oc2c1)C(CC(F)(F)F)NCC3 (stereo not shown) [Example 507] | < 0.5
23 | CC(C)c1ccc(S(=O)(=O)Oc2ccc3c(c2)C2CCNCC2O3)cc1 (stereo not shown) [Example 716] | < 0.5
24 | O=S(=O)(Oc1ccc2c(c1)C1CCNCC1O2)c1ccc(F)cc1F (stereo not shown) [Example 712] | > 1

Row | Structure (SMILES) | Ki [µM]
25 | N#CCCCCOc1cccc(S(=O)(=O)c2ccc3c(c2)OC2CNCCC32)c1 (stereo not shown) [Example 574] | < 0.5
26 | CC1(C)NCCc2c1oc1cc(S(=O)(=O)c3cccc(F)c3F)ccc21 [Example 365] | < 0.5
27 | Cc1ccc(C)c(S(=O)(=O)Oc2ccc3c(c2)C2CCNCC2O3)c1 (stereo not shown) [Example 704] | < 0.5
28 | O=S(=O)(c1cccc(Cl)c1)c1ccc2c3c(oc2c1)C(C1CCOCC1)NCC3 (stereo not shown) [Example 500] | < 0.5
29 | O=S(=O)(c1ccc2c(c1)OC1CNCCC21)c1ccccc1OCC(F)(F)F (stereo not shown) [Example 408] | < 0.5
30 | O=S(=O)(c1ccc2c(c1)OCCO2)c1ccc2c(c1)OC1CNCCC21 (stereo not shown) [Example 119] | < 0.5
31 | CC12CCNCC1Oc1ccc(OS(=O)(=O)c3ccc4ccccc4c3)cc12 (stereo not shown) [Example 769] | < 0.5
32 | O=S(=O)(Nc1ccc2c(c1)C1CCNCC1O2)c1cccc2ccccc12 (stereo not shown) [Example 825] | < 0.5
33 | CC12CCN(CCc3ccccc3)CC1Oc1ccc(OS(=O)(=O)Cc3ccccc3)cc12 (stereo not shown) [Example 811] | > 1
34 | CC(C)COc1cc(F)cc(S(=O)(=O)c2ccc3c(c2)OC2CNCCC32)c1 (stereo not shown) [Example 402] | < 0.5
35 | O=S(=O)(Oc1ccc2c(c1)C1CCNCC1O2)c1cccc2nsnc12 (stereo not shown) [Example 730] | > 1
36 | CC(C)Oc1cccc([S+]([O-])c2ccc3c4c(oc3c2)CNCC4)c1 (stereo not shown) [Example 216] | < 0.5
37 | O=S(=O)(Oc1ccc2c(c1)C1CCNCC1O2)c1csc(C(F)(F)F)c1-c1ccccc1 (stereo not shown) [Example 747] | 0.5 to 1
38 | O=S(=O)(Oc1ccc2c(c1)C1CCNCC1O2)c1ccc(Cl)c(Cl)c1 (stereo not shown) [Example 738] | < 0.5
39 | O=S(=O)(c1ccc2c(c1)C1CCNCC1O2)N1CCC(c2ccccc2)CC1 (stereo not shown) [Example 861] | 0.5 to 1
40 | O=S(=O)(c1cccc(F)c1)c1ccc2oc3c(c2c1)CCNC3C1CCCC1 (stereo not shown) [Example 513] | < 0.5
41 | O=S(=O)(c1ccc2c(c1)OC1CNCCC21)c1ccccc1-c1ccccc1 (stereo not shown) [Example 152] | < 0.5
42 | Cn1cnc(COc2cccc(S(=O)(=O)c3ccc4c(c3)OC3CNCCC43)c2)n1 (stereo not shown) [Example 560] | > 1
43 | CN(C)C(=O)CC1(C)NCCc2c1oc1cc(S(=O)(=O)c3cccc(F)c3)ccc21 (racemic) [Example 40, 2-{7-[(3-fluorophenyl)sulfonyl]-1-methyl-1,2,3,4-tetrahydro[1]benzofuro[2,3-c]pyridin-1-yl}-N,N-dimethylacetamide] | < 0.5
44 | Cc1c(Cl)cccc1S(=O)(=O)Oc1ccc2c(c1)C1CCNCC1O2 (stereo not shown) [Example 718] | < 0.5
45 | Cc1c(S(=O)(=O)Oc2ccc3c(c2)C2CCNCC2O3)sc2ccc(Cl)cc12 (stereo not shown) [Example 748] | < 0.5
46 | O=S(=O)(Oc1ccc2c(c1)C1CCNCC1O2)c1ccc2ccccc2c1 (stereo not shown) [Example 721] | < 0.5
47 | O=S(=O)(Oc1ccc2c(c1)C1CCNCC1O2)c1cc2ccccc2o1 (stereo not shown) [Example 714] | < 0.5

Further lines, results first:

Row | Ki [µM] | Structure (SMILES)
48 | < 0.5 | O=S(=O)(c1cccc(OCc2cnccn2)c1)c1ccc2c(c1)OC1CNCCC21 (stereo not shown) [Example 567]
49 | > 1 | N#Cc1ccc(S(=O)(=O)c2ccc3oc4c(c3c2)CCNC4)cc1 [Example 271]
50 | < 0.5 | O=S(=O)(Oc1ccc2c(c1)OC1CNCCC21)c1ccccc1Cl (stereo not shown) [Example 654]
51 | < 0.5 | O=S(=O)(c1ccc(Cl)c(Cl)c1)c1cccc2c1OC1CNCCC21 (stereo not shown) [Example 186]
52 | < 0.5 | O=S(=O)(c1ccc2c(c1)OC1CNCCC21)c1cccc(OCC2CCOCC2)c1Cl (stereo not shown) [Example 485]
53 | < 0.5 | O=S(=O)(Oc1ccc2c(c1)OC1CNCCC21)c1cccc2nsnc12 (stereo not shown) [Example 669]
54 | < 0.5 | O=S(=O)(c1cc(F)cc(Cl)c1)c1ccc2c(c1)OC1CNCCC21 (stereo not shown) [Example 147]
55 | < 0.5 | CC(C)Oc1cccc(S(=O)(=O)c2ccc3c4c(oc3c2)C2(CCCOC2)NCC4)c1 (racemic) [Example 23, 7-{[3-(propan-2-yloxy)phenyl]sulfonyl}-3,4,5′,6′-tetrahydro-2H,4′H-spiro[1-benzofuro[2,3-c]pyridine-1,3′-pyran]]
56 | < 0.5 | CC(C)Oc1cccc(S(=O)(=O)c2ccc3c4c(oc3c2)C2(CCOC2)NCC4)c1 (single isomer, unassigned) [Example 31, 7-{[3-(propan-2-yloxy)phenyl]sulfonyl}-3,4,4′,5′-tetrahydro-2H-spiro[1-benzofuro[2,3-c]pyridine-1,3′-furan]]
57 | < 0.5 | COCC1(C)NCCc2c1oc1cc(S(=O)(=O)c3cccc(F)c3)ccc21 (stereo not shown) [Example 633]
58 | < 0.5 | O=S(=O)(c1cc(F)cc(OCC(F)(F)F)c1)c1ccc2c(c1)OC1CNCCC21 (stereo not shown) [Example 403]
59 | < 0.5 | CC1(C)CNC2(CCOCC2)c2oc3cc([S+]([O-])c4cccc(F)c4)ccc3c21 (racemic) [Example 47, 7-[(3-fluorophenyl)sulfinyl]-4,4-dimethyl-2′,3,3′,4,5′,6′-hexahydro-2H-spiro[1-benzofuro[2,3-c]pyridine-1,4′-pyran]]
60 | > 1 | CN(C)C(=O)c1c(F)cccc1S(=O)(=O)c1ccc2c3c(oc2c1)CNCC3 [Example 479]
61 | < 0.5 | CCCCCOc1cccc(S(=O)(=O)c2ccc3c(c2)OC2CNCCC32)c1 (stereo not shown) [Example 557]
62 | 0.5 to 1 | O=S(=O)(Oc1ccc2c(c1)OC1CN(C3CCCCC3)CCC21)c1ccc(Cl)cc1 (stereo not shown) [Example 802]
63 | 0.5 to 1 | O=S(=O)(Oc1ccc2c(c1)OC1CNCCC21)c1ccc(N2CCOCC2)nc1 (stereo not shown) [Example 683]
64 | < 0.5 | [O-][S+](c1ccc2c3c(oc2c1)CNCC3)c1cc(F)ccc1F (stereo not shown) [Example 222]
65 | < 0.5 | Cc1ccc(S(=O)(=O)Oc2ccc3c(c2)C2CCNCC2O3)cc1 (stereo not shown) [Example 700]
66 | > 1 | O=S(=O)(c1ccc2oc3c(c2c1)CCNC3)C1CCCCC1 [Example 280]
67 | < 0.5 | O=S(=O)(c1cccc(Cl)c1)c1ccc2c3c(oc2c1)CN(CCc1ccccc1)CC3 [Example 602]
68 | < 0.5 | CC1NCCc2c1oc1cc(S(=O)(=O)c3ccc(F)c(F)c3)ccc21 (stereo not shown) [Example 238]
69 | < 0.5 | O=S(=O)(c1cc(F)cc(OCc2ccccc2)c1)c1ccc2c(c1)OC1CNCCC21 (stereo not shown) [Example 484]
70 | < 0.5 | O=S(=O)(c1cccc(F)c1)c1ccc2c3c(oc2c1)C(C(F)F)NCC3 (stereo not shown) [Example 509]
71 | < 0.5 | O=S(=O)(c1ccccc1)c1ccc2c(c1)OC1CNCCC21 (stereo not shown) [Example 321, 7-(phenylsulfonyl)-1,2,3,4,4a,9a-hexahydro[1]benzofuro[2,3-c]pyridine]
72 | > 1 | O=S(=O)(Oc1ccc2c(c1)C1CCNCC1O2)c1cccc(F)c1 (stereo not shown) [Example 701]
73 | < 0.5 | O=S(=O)(c1cccc(Cl)c1)c1ccc2c3c(oc2c1)CN(CCO)CC3 [Example 599]
74 | < 0.5 | O=S(=O)(Oc1ccc2c(c1)C1CCNCC1O2)c1ccc2c(c1)OCCO2 (stereo not shown) [Example 729]
75 | < 0.5 | CC(C)Oc1ccccc1S(=O)(=O)c1ccc2c(c1)OC1CNCCC21 (stereo not shown) [Example 406]
76 | > 1 | O=S(=O)(c1cc[n+]([O-])cc1)c1ccc2oc3c(c2c1)CCNC3 [Example 351]
